Literature values in patent US6245768A, “1-(N'-(arylalkylaminoalkyl)) aminoisoindoles; a new class of dopamine receptor subtype specific ligands” (Neurogen Corporation, priority 1999, dated 2001).
Read-outs that look alike come from different tables or passages of the source.

How the values were obtained:
D1 dopamine receptor = conditions: related art
D2 receptors = conditions: related art

O=C(CCCN1CCC(O)(c2ccc(Cl)cc2)CC1)c1ccc(F)cc1 [haloperidol]
binding at the D1 dopamine receptor (D1 dopamine receptor): binds relatively weakly | binding affinity at D2 receptors (D2 receptors): subnanomolar range

CN1CCN(C2=Nc3cc(Cl)ccc3Nc3ccccc32)CC1 [clozapine]
incidence of extrapyramidal side effects (EPS) (compared with classical neuroleptics, related art): lesser incidence of extrapyramidal side effects (EPS) than classical neuroleptics

CCN1CCCC1CNC(=O)c1cc(S(N)(=O)=O)ccc1OC (stereo not shown) [sulpiride]
incidence of extrapyramidal side effects (EPS) (in vivo): lesser incidence of extrapyramidal side effects (EPS) than classical neuroleptics
